Data reported in ChEMBL document CHEMBL5584239, “Discovery of novel quinoline scaffold selective estrogen receptor degraders (SERDs) for treatment of ER positive breast cancer with enhanced antiproliferative bioactivity through immunogenic cell death (ICD) effects” (Eur J Med Chem, 2024).
Active and inactive are the calls of the source. No cut-off for these calls is given here.

Assays:
[1] = biological target: T1, Estrogen receptor (Homo sapiens) (UniProt P03372); experiment: Induction of estrogen receptor degradation in estradiol-stimulated human MCF7 cells assessed as decrease in TFF1 mRNA level incubated for 24 hrs by RT-qPCR analysis; assay type: cell-based; settings: dose 1-10 µM
T1 sequence (whole entry): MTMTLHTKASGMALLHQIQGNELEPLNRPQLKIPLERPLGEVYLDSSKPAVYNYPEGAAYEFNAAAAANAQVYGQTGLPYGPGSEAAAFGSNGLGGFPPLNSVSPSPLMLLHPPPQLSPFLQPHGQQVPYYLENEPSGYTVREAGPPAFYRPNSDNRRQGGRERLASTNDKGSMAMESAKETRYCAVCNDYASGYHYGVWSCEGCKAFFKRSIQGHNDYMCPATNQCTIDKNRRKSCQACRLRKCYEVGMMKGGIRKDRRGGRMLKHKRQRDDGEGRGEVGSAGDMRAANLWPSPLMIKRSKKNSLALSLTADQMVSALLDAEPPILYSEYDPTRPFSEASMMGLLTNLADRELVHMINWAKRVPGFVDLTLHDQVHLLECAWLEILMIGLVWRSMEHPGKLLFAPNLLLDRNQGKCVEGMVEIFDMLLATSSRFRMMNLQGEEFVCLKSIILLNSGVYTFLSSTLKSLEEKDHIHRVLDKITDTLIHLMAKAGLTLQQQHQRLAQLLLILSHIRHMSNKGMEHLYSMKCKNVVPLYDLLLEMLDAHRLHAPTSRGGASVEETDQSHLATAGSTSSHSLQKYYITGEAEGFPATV

MCF7 [2] = experiment: Induction of endoplasmic reticulum stress effect in human MCF7 cells assessed as change in CHOP level at 10 uM incubated for 24 hrs by immunofluorescence based analysis; assay type: functional, cell-based
MCF7 [3] = experiment: Synergistic antiproliferative activity against human MCF7 cells at 0.1 to 10000 nM incubated for 5 days in presence of Ribociclib by MTT assay; assay type: functional, cell-based; settings: dose 0.1-10000 nM, time 5.0 day
[4] = Toxicity in nude mouse model xenografted with human MCF7 cells assessed as body weight loss at 60 mg/kg, po administered daily via gavage for 30 days; assay type: organism-based; settings: in vivo, 720 h, time 30 day
[5] = biological target: T1, Estrogen receptor (Homo sapiens); experiment: Induction of estrogen receptor degradation in estradiol-stimulated human MCF7 cells assessed as decrease in GREB1 mRNA level incubated for 24 hrs by RT-qPCR analysis; assay type: cell-based; settings: dose 1-10 µM
MCF7 [6] = experiment: Induction of immunogenic cell death in human MCF7 cells assessed as CRT translocation at 10 uM by Western blot analysis; assay type: functional, cell-based
MCF7 [7] = experiment: Induction of immunogenic cell death in human MCF7 cells assessed as HMGB1 release from nucleus at 10 uM by FITC staining based flow cytometry; assay type: functional
MCF7 [8] = experiment: Induction of endoplasmic reticulum stress effect in human MCF7 cells assessed as change in pEIF-2alpha level at 10 uM incubated for 3 to 24 hrs by Western blot analysis; assay type: functional, cell-based; settings: time 3-24 hrs
MCF7 [9] = experiment: Antiproliferative activity against human MCF7 cells incubated for 5 days by MTT assay; assay type: functional, cell-based; settings: MCF7, 120 h
MCF7 [10] = experiment: Antitumor activity against human MCF7 cells xenografted in nude mouse model assessed as tumor growth inhibition at 60 mg/kg, po administered daily via gavage for 30 days; assay type: functional, organism-based; settings: time 30.0 day
MCF7 [11] = experiment: Induction of immunogenic cell death in human MCF7 cells assessed as CRT translocation at 10 uM by fluorescence microscopy; assay type: functional, cell-based
MCF7 [12] = experiment: Antitumor activity against human MCF7 cells xenografted in nude mouse model assessed as reduction in ER level at 60 mg/kg, po administered daily via gavage for 30 days in presence of ribociclib by IHC analysis; assay type: functional, organism-based; settings: time 30.0 day
[13] = Toxicity in nude mouse model xenografted with human MCF7 cells assessed as morphological change in kidney at 60 mg/kg, po administered daily via gavage for 30 days by H and E staining based analysis; assay type: organism-based; settings: in vivo, 720 h, time 30 day
MCF7 [14] = experiment: Induction of ROS production in human MCF7 cells incubated for 3 to 24 hrs by immunofluorescence analysis; assay type: functional, cell-based; settings: time 3-24 hrs
MCF7 [15] = experiment: Induction of endoplasmic reticulum stress effect in human MCF7 cells assessed as change in ATF4 level at 10 uM incubated for 3 to 24 hrs by Western blot analysis; assay type: functional, cell-based; settings: time 3-24 hrs
MCF7 [16] = experiment: Induction of endoplasmic reticulum stress effect in human MCF7 cells assessed as change in GRP78 level at 10 uM incubated for 3 to 24 hrs by Western blot analysis; assay type: functional, cell-based; settings: time 3-24 hrs
[17] = Toxicity in nude mouse model xenografted with human MCF7 cells assessed as morphological change in liver at 60 mg/kg, po administered daily via gavage for 30 days by H and E staining based analysis; assay type: organism-based; settings: in vivo, 720 h, time 30 day
[18] = biological target: T1, Estrogen receptor (Homo sapiens); experiment: Induction of estrogen receptor degradation in human MCF7 cells at 10 uM by fluorescence microscopy; assay type: cell-based
MCF7 [19] = experiment: Antitumor activity against human MCF7 cells xenografted in nude mouse model at 60 mg/kg, po administered daily via gavage for 30 days in presence of ribociclib; assay type: functional, organism-based; settings: time 30.0 day
Ishikawa = experiment: Antiproliferative activity against human Ishikawa cells at 20 uM incubated for 3 days by MTT assay relative to control; assay type: functional; settings: 72 h, time 3 day
MCF7 [20] = experiment: Induction of cell cycle arrest at G0/G1 phase in human MCF7 cells at 10 uM incubated for 24 hrs by PI/RNase staining based flow cytometry (reference value: 53.5 +/- 1.96 %); assay type: functional
[21] = biological target: T1, Estrogen receptor (Homo sapiens); experiment: Induction of estrogen receptor degradation in human MCF7 cells expressing ERE-luciferase at 10 uM incubated for 24 hrs by luminescence based analysis; assay type: cell-based
MCF7 [22] = experiment: Induction of immunogenic cell death in human MCF7 cells assessed as ATP release […] at 10 uM; assay type: functional, cell-based
MCF7 [23] = experiment: Induction of immunogenic cell death in human MCF7 cells assessed as HSP90 exposure at 10 uM by Western blot analysis; assay type: functional, cell-based
MCF7 [24] = experiment: Induction of immunogenic cell death in human MCF7 cells assessed as CRT translocation at 10 uM by FITC staining based flow cytometry; assay type: functional
MCF7 [25] = experiment: Antitumor activity against human MCF7 cells xenografted in nude mouse model assessed as reduction in Ki67 level at 60 mg/kg, po administered daily via gavage for 30 days in presence of ribociclib by IHC analysis; assay type: functional, organism-based; settings: time 30.0 day
[26] = Toxicity in nude mouse model xenografted with human MCF7 cells assessed as morphological change in spleen at 60 mg/kg, po administered daily via gavage for 30 days by H and E staining based analysis; assay type: organism-based; settings: in vivo, 720 h, time 30 day
MCF7 [27] = experiment: Induction of endoplasmic reticulum stress effect in human MCF7 cells assessed as change in EIF-2alpha level at 10 uM incubated for 3 to 24 hrs by Western blot analysis; assay type: functional, cell-based; settings: time 3-24 hrs
MCF7 [28] = experiment: Antitumor activity against human MCF7 cells xenografted in nude mouse model assessed as reduction in PR level at 60 mg/kg, po administered daily via gavage for 30 days in presence of ribociclib by IHC analysis; assay type: functional, organism-based; settings: time 30.0 day
MCF7 [29] = experiment: Induction of ROS production in human MCF7 cells measured after 6 to 24 hrs by flow cytometry; assay type: functional, cell-based; settings: time 6-24 hrs
MCF7 [30] = experiment: Induction of endoplasmic reticulum stress effect in human MCF7 cells assessed as change in calnexin level at 10 uM incubated for 24 hrs by immunofluorescence based analysis; assay type: functional, cell-based
MCF7 [31] = experiment: Induction of immunogenic cell death in human MCF7 cells assessed as HMGB1 release from nucleus at 10 uM by Western blot analysis; assay type: functional, cell-based
[32] = Toxicity in nude mouse model xenografted with human MCF7 cells assessed as morphological change in heart at 60 mg/kg, po administered daily via gavage for 30 days by H and E staining based analysis; assay type: organism-based; settings: in vivo, 720 h, time 30 day
MCF7 [33] = experiment: Induction of endoplasmic reticulum stress effect in human MCF7 cells assessed as change in calnexin level at 10 uM incubated for 3 to 24 hrs by Western blot analysis; assay type: functional, cell-based; settings: time 3-24 hrs
Uterus [34] = experiment: Effect on immature Sprague-Dawley rat uterus assessed as reduction in uterine wet weight at 60 mg/kg, po qd for 2 days by H and E staining based analysis; assay type: functional, organism-based; settings: time 2.0 day
[35] = biological target: T1, Estrogen receptor (Homo sapiens); experiment: Induction of estrogen receptor degradation in MG-132-treated human MCF7 cells at 10 uM incubated for 4 to 6 hrs by Western blot analysis; assay type: cell-based; settings: time 4-6 hrs
MCF7 [36] = experiment: Induction of immunogenic cell death in human MCF7 cells assessed as HMGB1 release from nucleus at 10 uM by fluorescence microscopy; assay type: functional, cell-based
[37] = biological target: T1, Estrogen receptor (Homo sapiens); experiment: Induction of estrogen receptor degradation in estradiol-stimulated human MCF7 cells assessed as decrease in PGR mRNA level incubated for 24 hrs by RT-qPCR analysis; assay type: cell-based; settings: dose 1-10 µM
[38] = biological target: T1, Estrogen receptor (Homo sapiens); experiment: Induction of estrogen receptor degradation in human MCF7 cells incubated for 24 hrs by Western blot analysis; assay type: cell-based; settings: dose 0.001-10 µM
MCF7 [39] = experiment: Induction of endoplasmic reticulum stress effect in human MCF7 cells assessed as change in CHOP level at 10 uM incubated for 3 to 24 hrs by Western blot analysis; assay type: functional, cell-based; settings: time 3-24 hrs
Uterus [40] = experiment: Effect on immature Sprague-Dawley rat uterus assessed as reduction in uterine wet weight at 2 mg/kg, sc qd for 2 days by H and E staining based analysis; assay type: functional, organism-based; settings: time 2.0 day

CCc1cc(/C=C/C(=O)O)ccc1Oc1c(C(=O)c2ccccc2CC)cnc2cc(O)ccc12
Activity [1]: Dose-Dependent Effect
Activity (MCF7 [2]): Active
Activity (MCF7 [3]): Active
Activity [4]: Non-Toxic
Activity [5]: Dose-Dependent Effect
Activity (MCF7 [6]): Active
Activity (MCF7 [7]): Active
Activity (MCF7 [8]): Active
IC50 (MCF7 [9]): 510 nM
inhibition (MCF7 [10]): Active
Activity (MCF7 [11]): Active
Activity (MCF7 [12]): Active
Activity [13]: Non-Toxic
Activity (MCF7 [14]): inactive
Activity (MCF7 [15]): Active
Activity (MCF7 [16]): Active
Activity [17]: Non-Toxic
Activity [18]: Active
Activity (MCF7 [19]): Active
inhibition at 20 µM (Ishikawa): 13.2%
Activity (MCF7 [20]): 64%
Activity [21]: Active
Activity (MCF7 [22]): Active
Activity (MCF7 [23]): Active
Activity (MCF7 [24]): Active
Activity (MCF7 [25]): Active
Activity [26]: Non-Toxic
Activity (MCF7 [27]): Active
Activity (MCF7 [28]): Active
Activity (MCF7 [29]): inactive
Activity (MCF7 [30]): Active
Activity (MCF7 [31]): Active
Activity [32]: Non-Toxic
Activity (MCF7 [33]): Active
Activity (Uterus [34]): inactive
Activity [35]: inactive
Activity (MCF7 [36]): Active
Activity [37]: Dose-Dependent Effect
Activity [38]: Dose-Dependent Effect
Activity (MCF7 [39]): Active

C[C@]12CC[C@@H]3c4ccc(O)cc4C[C@@H](CCCCCCCCC[S+]([O-])CCCC(F)(F)C(F)(F)F)[C@H]3[C@@H]1CC[C@@H]2O (stereo partly specified) [FULVESTRANT]
Activity (MCF7 [3]): Active
IC50 (MCF7 [9]): 0.646 nM
Activity (MCF7 [14]): inactive
Activity (Uterus [40]): Active
inhibition at 20 µM (Ishikawa): -3.19%
Activity (MCF7 [20]): 66.83%

CCc1ccccc1C(=O)c1cnc2cc(O)ccc2c1Oc1ccc(/C=C/C(=O)O)cc1C
Activity [1]: Dose-Dependent Effect
Activity [5]: Dose-Dependent Effect
IC50 (MCF7 [9]): 450 nM
inhibition at 20 µM (Ishikawa): -6.14%
Activity [37]: Dose-Dependent Effect
